Reference: patent US10670605B2, “Cysteine reactive probes and uses thereof” (The Scripps Research Institute, priority 2015, dated 2020)
Blank lines part the entries; values can stand above or below the compound they belong to.

How the values were obtained:
Assay in all cases: Competitive isoTOP-ABPP in situ (fragment-treated cells)
Assay type in all cases: cell-based
[1] = biological target: cysteines in MDA-MB-231 and Ramos cells (Homo sapiens, UniProt Q92616); settings: 200 μM, insitu
[2] = biological target: cysteines in MDA-MB-231 and Ramos cells (Homo sapiens, UniProt Q15003)
[3] = biological target: T1, cysteines in MDA-MB-231 and Ramos cells (Homo sapiens, UniProt P05091)
T1 sequence (P05091 18-517): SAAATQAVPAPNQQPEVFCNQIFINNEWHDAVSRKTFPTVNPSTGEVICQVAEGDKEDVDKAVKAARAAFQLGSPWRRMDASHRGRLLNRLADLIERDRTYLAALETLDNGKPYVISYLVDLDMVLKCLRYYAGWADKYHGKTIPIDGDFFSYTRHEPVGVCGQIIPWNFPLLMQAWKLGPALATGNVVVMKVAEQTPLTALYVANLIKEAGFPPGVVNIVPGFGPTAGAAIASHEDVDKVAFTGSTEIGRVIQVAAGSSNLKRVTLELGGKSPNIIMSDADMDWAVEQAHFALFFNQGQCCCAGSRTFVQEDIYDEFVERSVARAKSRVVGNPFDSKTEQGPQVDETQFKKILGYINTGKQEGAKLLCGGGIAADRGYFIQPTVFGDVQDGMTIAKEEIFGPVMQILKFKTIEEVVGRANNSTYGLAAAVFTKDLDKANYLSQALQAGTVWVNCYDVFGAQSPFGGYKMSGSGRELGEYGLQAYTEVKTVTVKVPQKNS

[4] = biological target: T2, cysteines in MDA-MB-231 and Ramos cells (Homo sapiens, UniProt Q8N2W9); settings: 200 μM, insitu
T2 sequence (Q8N2W9 1-510): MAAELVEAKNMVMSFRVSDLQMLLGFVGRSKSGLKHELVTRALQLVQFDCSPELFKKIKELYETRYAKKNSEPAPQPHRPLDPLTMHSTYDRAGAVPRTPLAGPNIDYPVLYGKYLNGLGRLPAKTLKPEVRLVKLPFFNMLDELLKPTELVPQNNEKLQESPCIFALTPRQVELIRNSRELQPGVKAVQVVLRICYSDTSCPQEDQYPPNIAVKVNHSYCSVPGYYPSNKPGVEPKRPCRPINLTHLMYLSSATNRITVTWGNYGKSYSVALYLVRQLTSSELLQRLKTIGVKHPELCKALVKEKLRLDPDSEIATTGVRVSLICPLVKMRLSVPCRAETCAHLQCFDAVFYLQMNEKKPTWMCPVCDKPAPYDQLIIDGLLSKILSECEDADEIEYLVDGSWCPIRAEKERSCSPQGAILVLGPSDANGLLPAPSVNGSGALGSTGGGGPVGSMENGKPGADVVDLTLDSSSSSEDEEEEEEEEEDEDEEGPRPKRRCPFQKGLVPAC

[5] = biological target: T3, cysteines in MDA-MB-231 and Ramos cells (Homo sapiens, UniProt Q7Z5K2)
T3 sequence (Q7Z5K2 1-1190): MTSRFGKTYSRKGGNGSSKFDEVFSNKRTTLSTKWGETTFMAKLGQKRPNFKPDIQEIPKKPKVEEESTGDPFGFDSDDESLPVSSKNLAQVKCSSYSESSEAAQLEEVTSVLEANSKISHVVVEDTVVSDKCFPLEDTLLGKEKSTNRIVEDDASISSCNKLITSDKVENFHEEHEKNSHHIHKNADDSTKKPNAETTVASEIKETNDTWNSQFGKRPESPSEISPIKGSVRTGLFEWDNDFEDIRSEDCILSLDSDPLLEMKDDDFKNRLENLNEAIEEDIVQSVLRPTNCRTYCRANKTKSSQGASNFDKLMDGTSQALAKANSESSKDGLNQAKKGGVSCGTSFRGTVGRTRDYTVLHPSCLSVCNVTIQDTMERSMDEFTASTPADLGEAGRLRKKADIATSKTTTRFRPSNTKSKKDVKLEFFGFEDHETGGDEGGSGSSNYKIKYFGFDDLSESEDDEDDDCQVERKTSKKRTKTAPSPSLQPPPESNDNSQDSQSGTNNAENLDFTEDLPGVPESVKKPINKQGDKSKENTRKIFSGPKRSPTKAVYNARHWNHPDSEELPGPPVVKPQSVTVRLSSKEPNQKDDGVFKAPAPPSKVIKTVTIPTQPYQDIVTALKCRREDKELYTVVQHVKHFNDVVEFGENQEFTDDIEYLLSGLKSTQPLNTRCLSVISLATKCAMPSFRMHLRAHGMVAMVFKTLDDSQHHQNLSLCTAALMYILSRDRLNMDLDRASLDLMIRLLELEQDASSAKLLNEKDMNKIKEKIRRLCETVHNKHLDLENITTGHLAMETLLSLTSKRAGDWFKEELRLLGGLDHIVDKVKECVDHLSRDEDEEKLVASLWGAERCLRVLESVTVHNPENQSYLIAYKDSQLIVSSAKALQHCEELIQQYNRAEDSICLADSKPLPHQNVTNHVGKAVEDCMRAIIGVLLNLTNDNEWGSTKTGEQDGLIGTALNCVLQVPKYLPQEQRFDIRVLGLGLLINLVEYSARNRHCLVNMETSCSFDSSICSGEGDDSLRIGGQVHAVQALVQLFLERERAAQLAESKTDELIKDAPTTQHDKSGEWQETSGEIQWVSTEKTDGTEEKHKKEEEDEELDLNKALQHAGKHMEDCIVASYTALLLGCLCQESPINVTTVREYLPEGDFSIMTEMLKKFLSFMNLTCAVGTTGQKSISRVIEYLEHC

[6] = biological target: T4, cysteines in MDA-MB-231 and Ramos cells (Homo sapiens, UniProt Q9NUI1); settings: for isoTOP-ABPP ratio Q9NUI1_C22: 200 μM, insitu, 231
T4 sequence (Q9NUI1 1-292): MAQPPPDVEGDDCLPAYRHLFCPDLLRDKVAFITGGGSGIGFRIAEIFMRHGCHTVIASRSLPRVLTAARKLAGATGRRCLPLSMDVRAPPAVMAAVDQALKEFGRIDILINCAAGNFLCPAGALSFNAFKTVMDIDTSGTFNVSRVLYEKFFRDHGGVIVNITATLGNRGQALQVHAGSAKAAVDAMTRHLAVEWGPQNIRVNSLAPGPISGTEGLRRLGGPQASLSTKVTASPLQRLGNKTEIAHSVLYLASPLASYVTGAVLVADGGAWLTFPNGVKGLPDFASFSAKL

Chain of cysteines in MDA-MB-231 and Ramos cells (Homo sapiens, UniProt Q15003) (Q15003 whole entry): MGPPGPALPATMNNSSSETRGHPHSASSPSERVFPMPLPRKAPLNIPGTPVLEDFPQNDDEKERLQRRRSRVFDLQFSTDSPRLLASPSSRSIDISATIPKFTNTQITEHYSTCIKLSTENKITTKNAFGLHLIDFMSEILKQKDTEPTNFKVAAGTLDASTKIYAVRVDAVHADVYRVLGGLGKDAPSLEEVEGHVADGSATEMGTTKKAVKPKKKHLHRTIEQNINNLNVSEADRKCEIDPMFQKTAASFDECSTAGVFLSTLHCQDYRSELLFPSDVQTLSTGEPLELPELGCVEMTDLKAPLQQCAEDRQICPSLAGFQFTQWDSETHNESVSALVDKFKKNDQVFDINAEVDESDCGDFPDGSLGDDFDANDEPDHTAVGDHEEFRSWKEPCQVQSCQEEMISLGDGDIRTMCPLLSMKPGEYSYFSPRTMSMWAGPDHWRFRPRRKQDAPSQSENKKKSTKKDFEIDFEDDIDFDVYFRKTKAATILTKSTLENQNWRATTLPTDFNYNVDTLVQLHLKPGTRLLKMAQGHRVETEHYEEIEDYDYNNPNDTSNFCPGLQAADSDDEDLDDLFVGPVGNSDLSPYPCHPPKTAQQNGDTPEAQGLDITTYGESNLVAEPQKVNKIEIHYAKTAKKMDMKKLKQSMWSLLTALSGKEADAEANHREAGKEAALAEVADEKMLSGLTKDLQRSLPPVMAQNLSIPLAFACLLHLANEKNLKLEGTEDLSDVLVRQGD
Chain of cysteines in MDA-MB-231 and Ramos cells (Homo sapiens, UniProt Q92616) (Q92616 whole entry): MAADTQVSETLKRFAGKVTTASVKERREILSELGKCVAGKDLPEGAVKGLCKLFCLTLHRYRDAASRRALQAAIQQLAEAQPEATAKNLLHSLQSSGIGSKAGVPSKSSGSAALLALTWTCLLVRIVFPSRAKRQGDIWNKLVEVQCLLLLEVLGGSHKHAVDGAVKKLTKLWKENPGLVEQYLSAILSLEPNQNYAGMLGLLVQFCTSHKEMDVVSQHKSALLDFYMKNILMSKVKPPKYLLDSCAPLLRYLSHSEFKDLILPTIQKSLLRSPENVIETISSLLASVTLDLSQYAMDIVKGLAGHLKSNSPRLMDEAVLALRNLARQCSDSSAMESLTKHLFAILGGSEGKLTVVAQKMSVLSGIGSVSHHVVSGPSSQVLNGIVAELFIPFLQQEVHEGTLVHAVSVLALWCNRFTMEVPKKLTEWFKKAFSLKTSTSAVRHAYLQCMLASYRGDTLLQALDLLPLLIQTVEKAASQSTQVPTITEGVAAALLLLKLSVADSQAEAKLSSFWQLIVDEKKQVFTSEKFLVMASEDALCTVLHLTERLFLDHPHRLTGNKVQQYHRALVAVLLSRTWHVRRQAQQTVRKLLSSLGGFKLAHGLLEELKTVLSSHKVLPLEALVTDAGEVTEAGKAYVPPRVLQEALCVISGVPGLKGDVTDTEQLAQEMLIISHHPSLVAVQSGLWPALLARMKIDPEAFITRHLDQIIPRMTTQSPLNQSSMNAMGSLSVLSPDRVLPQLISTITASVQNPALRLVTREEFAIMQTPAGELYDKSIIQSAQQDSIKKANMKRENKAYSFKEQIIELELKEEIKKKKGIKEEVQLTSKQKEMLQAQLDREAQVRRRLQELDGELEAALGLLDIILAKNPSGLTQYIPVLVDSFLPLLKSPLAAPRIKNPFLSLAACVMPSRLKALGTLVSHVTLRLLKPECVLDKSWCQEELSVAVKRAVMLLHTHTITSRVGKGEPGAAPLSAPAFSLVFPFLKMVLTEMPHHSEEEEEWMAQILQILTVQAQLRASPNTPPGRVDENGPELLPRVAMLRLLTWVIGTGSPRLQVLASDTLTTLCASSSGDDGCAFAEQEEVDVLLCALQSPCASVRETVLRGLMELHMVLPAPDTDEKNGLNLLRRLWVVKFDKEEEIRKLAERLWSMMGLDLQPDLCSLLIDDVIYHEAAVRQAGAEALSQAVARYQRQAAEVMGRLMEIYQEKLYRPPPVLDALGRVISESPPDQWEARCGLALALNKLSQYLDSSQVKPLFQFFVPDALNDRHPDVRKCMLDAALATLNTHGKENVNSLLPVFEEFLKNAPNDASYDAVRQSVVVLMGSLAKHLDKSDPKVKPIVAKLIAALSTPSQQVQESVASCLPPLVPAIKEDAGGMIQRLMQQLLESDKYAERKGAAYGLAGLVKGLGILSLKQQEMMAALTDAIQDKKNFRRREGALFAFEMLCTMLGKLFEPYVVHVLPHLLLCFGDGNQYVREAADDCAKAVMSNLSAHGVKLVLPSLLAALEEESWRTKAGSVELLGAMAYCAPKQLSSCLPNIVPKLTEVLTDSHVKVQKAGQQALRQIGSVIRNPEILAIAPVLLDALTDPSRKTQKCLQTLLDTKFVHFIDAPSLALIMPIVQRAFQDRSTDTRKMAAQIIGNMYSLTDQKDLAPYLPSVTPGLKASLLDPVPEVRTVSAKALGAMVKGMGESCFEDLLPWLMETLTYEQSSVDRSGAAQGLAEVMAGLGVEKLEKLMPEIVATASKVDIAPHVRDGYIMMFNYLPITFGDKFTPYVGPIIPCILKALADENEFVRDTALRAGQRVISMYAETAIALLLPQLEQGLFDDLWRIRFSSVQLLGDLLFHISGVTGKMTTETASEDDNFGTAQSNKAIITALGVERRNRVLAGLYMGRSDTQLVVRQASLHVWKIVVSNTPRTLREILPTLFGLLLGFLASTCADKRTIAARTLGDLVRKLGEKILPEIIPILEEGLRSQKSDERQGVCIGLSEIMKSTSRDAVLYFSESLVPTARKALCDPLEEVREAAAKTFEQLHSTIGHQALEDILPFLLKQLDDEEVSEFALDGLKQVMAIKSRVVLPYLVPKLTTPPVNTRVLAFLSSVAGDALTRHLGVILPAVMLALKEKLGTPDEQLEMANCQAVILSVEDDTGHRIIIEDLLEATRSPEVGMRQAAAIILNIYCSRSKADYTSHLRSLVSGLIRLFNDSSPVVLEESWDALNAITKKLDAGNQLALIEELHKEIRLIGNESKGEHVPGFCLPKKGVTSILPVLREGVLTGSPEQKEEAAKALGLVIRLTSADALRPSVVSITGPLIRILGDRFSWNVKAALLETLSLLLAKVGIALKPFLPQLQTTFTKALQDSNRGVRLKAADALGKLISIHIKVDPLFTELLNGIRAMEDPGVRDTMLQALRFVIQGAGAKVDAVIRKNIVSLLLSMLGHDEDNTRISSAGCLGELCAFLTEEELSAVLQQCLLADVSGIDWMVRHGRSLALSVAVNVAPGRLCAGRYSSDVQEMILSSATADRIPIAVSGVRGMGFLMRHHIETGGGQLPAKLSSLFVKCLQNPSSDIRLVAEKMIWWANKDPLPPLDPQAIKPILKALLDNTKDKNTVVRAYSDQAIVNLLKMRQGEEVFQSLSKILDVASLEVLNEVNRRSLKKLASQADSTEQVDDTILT

isoTOP-ABPP reactivity Q92616_C1692 GCN1L1 [1]; 231: 1.4 | isoTOP-ABPP reactivity Q15003_C418 NCAPH ([2]; 200 μM, insitu, 231): 20.0
SMILES: COc1ccc2c(c1)CCCN2C(=O)CCl [compound 2]

isoTOP-ABPP reactivity P05091_C319 ALDH2 ([3]; 100 μM in situ 231): 20.0 | isoTOP-ABPP reactivity Q15003_C418 NCAPH ([2]; 100 μM in situ 231): 20.0
SMILES: COc1ccc(C2CC(c3cccs3)=NN2C(=O)CCl)cc1 (stereo not shown) [compound 4]

isoTOP-ABPP ratio, cysteine Q8N2W9_C326 [4]; 231: 4.5 | isoTOP-ABPP ratio, cysteine Q7Z5K2_C160 ([5]; 200 μM, insitu, 231): 20.0
SMILES: O=C(CCl)N1CCN(S(=O)(=O)c2ccccc2F)CC1 [compound 10]

isoTOP-ABPP ratio, cysteine Q9NUI1_C22 ([6]; 100 μM in situ 231): 2.1 | isoTOP-ABPP ratio, cysteine Q7Z5K2_C160 ([5]; 100 μM in situ 231): 1.0 | isoTOP-ABPP ratio, cysteine Q15003_C418 ([2]; 100 μM in situ 231): 1 .6
SMILES: Cn1cc(S(=O)(=O)N2CCOCC2)cc1C(=O)NC(=O)CCl [compound 11]

isoTOP-ABPP ratio, cysteine P05091_C319 ([3]; 200 μM, insitu, 231): 20.0
SMILES: O=C(CCl)NC(=O)NC12CC3CC(CC(C3)C1)C2 [compound 12]

isoTOP-ABPP ratio, cysteine Q8N2W9_C326 ([4]; ramos): 20.0 | isoTOP-ABPP ratio, cysteine Q92616_C1692 ([1]; ramos): 0.9
SMILES: O=C(CCl)NCCc1c[nH]c2ccccc12 [compound 13]

isoTOP-ABPP ratio, cysteine Q8N2W9_C326 [4]; 231: 1.0
SMILES: O=C(CCl)NC12CC3CC(CC(C3)C1)C2 [compound 21]

isoTOP-ABPP ratio Q92616_C1692 [1]; 231: 0.5
SMILES: CC(C)CCOCCNC(=O)CCl [compound 27]

isoTOP-ABPP ratio Q7Z5K2_C160 ([5]; 200 μM, insitu, ramos): 0.7 | isoTOP-ABPP ratio P05091_C319 ([3]; 200 μM, insitu, ramos): 10.5 | isoTOP-ABPP ratio Q15003_C418 ([2]; 200 μM, insitu, ramos): 1.4
SMILES: O=C(CCl)N1CCN(CC(=O)N2CCOCC2)CC1 [compound 29]

isoTOP-ABPP ratio Q9NUI1_C22 [6]: 0.7 | isoTOP-ABPP ratio Q92616_C1692 [1]; 231: 0.6 | isoTOP-ABPP ratio Q92616_C1692 ([1]; ramos): 2.0
SMILES: C=CC(=O)N(Cc1cccnc1)c1cc(C(F)(F)F)cc(C(F)(F)F)c1 [compound 31]

isoTOP-ABPP ratio Q8N2W9_C326 [4]; 231: 0.9
SMILES: C=CC(=O)Nc1cc(F)c(N2CCN(C(=O)OC(C)(C)C)CC2)c(F)c1 [compound 38]

isoTOP-ABPP ratio Q8N2W9_C326 [4]; 231: 0.8 | isoTOP-ABPP ratio Q7Z5K2_C160 ([5]; 200 μM, insitu, 231): 1.0 | isoTOP-ABPP ratio Q92616_C1692 [1]; 231: 0.7 | isoTOP-ABPP ratio P05091_C319 ([3]; 200 μM, insitu, 231): 0.9
SMILES: Cc1ccc(C=C(C#N)C(=O)NCCN2CCOCC2)cc1 [compound 41]

isoTOP-ABPP ratio Q9NUI1_C22 [6]: 17.0 | isoTOP-ABPP ratio P05091_C319 ([3]; 200 μM, insitu, 231): 20.0 | isoTOP-ABPP ratio Q15003_C418 ([2]; 200 μM, insitu, 231): 20.0
SMILES: CC1CCc2ccccc2N1C(=O)CCl (stereo not shown) [compound 45]
